Experimental data as given in PubChem BioAssay AID1963435 (Molecular Pharmacology Branch, DTP, NCI, 2024).
pIC50: −log10 of the molar value. Each block holds one molecule with its values, some of them ahead of it.

System: PANC-1 complex spheroid growth, percent test/control
Assay: Anticancer human tumor PANC-1 cell line growth inhibition [Asc];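 note: spheroids exposed to agents for 7 days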;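 for viability, T/C: percent viability relative to DMSO vehicle wells taken as 100%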
Settings: for pIC50: curve of first compound; for viability, T/C: stronger effect = lower value
Method in brief: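 Stromal components (HUVEC and hMSC) are co-assembled with the cancer cells into multicellular spheroids. Drugs are then added singly or paired, at concentrations falling by half-log increments from a clinically achievable maximum, capped at 10 microM without known Cmax.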

[1] = second compound 0.0316 µM, first compound 0.00316 µM
[2] = second compound 0.0316 µM, first compound 0.01 µM
[3] = second compound 0.0316 µM, first compound 0.0316 µM
[4] = second compound 0.0316 µM, first compound 0.1 µM
[5] = second compound 0.0316 µM, first compound 0.316 µM
[6] = second compound 0.0316 µM, first compound 1 µM
[7] = second compound 0.1 µM, first compound 0.00316 µM
[8] = second compound 0.1 µM, first compound 0.01 µM
[9] = second compound 0.1 µM, first compound 0.0316 µM
[10] = second compound 0.1 µM, first compound 0.1 µM
[11] = second compound 0.1 µM, first compound 0.316 µM
[12] = second compound 0.1 µM, first compound 1 µM
[13] = second compound 0.316 µM, first compound 0.00316 µM
[14] = second compound 0.316 µM, first compound 0.01 µM
[15] = second compound 0.316 µM, first compound 0.0316 µM
[16] = second compound 0.316 µM, first compound 0.1 µM
[17] = second compound 0.316 µM, first compound 0.316 µM
[18] = second compound 0.316 µM, first compound 1 µM
[19] = second compound 1 µM, first compound 0.00316 µM
[20] = second compound 1 µM, first compound 0.01 µM
[21] = second compound 1 µM, first compound 0.0316 µM
[22] = second compound 1 µM, first compound 0.1 µM
[23] = second compound 1 µM, first compound 0.316 µM
[24] = second compound 1 µM, first compound 1 µM
[25] = second compound 3.16 µM, first compound 0.00316 µM
[26] = second compound 3.16 µM, first compound 0.01 µM
[27] = second compound 3.16 µM, first compound 0.0316 µM
[28] = second compound 3.16 µM, first compound 0.1 µM
[29] = second compound 3.16 µM, first compound 0.316 µM
[30] = second compound 3.16 µM, first compound 1 µM
[31] = second compound 10 µM, first compound 0.00316 µM
[32] = second compound 10 µM, first compound 0.01 µM
[33] = second compound 10 µM, first compound 0.0316 µM
[34] = second compound 10 µM, first compound 0.1 µM
[35] = second compound 10 µM, first compound 0.316 µM
[36] = second compound 10 µM, first compound 1 µM

pIC50 (second compound 0.0316 µM): < 6.00 | pIC50 (second compound 0.1 µM): < 6.00 | pIC50 (second compound 0.316 µM): < 6.00 | pIC50 (second compound 1 µM): < 6.00 | pIC50 (second compound 3.16 µM): < 6.00 | pIC50 (second compound 10 µM): < 6.00
Structure (SMILES): CCN1CCN(Cc2ccc(Nc3ncc(F)c(-c4cc(F)c5nc(C)n(C(C)C)c5c4)n3)nc2)CC1 + Cc1c(S(C)(=O)=O)c(-c2cc(F)cc(N3CCN(c4ccc(NS(=O)(=O)c5ccc(NC(CCN6CCC(C(=O)OCCCP(=O)(O)O)CC6)CSc6ccccc6)c(S(=O)(=O)C(F)(F)F)c5)cc4)CC3)c2)c(-c2ccc(Cl)cc2)n1C(C)C
viability, T/C [1]: 93.5% | viability, T/C [2]: 108% | viability, T/C [3]: 102% | viability, T/C [4]: 121% | viability, T/C [5]: 124% | viability, T/C [6]: 129% | viability, T/C [7]: 96% | viability, T/C [8]: 100% | viability, T/C [9]: 99.5% | viability, T/C [10]: 115% | viability, T/C [11]: 121% | viability, T/C [12]: 137% | viability, T/C [13]: 105% | viability, T/C [14]: 116% | viability, T/C [15]: 108% | viability, T/C [16]: 103% | viability, T/C [17]: 123% | viability, T/C [18]: 127% | viability, T/C [19]: 104% | viability, T/C [20]: 101% | viability, T/C [21]: 115% | viability, T/C [22]: 126% | viability, T/C [23]: 115% | viability, T/C [24]: 125% | viability, T/C [25]: 110% | viability, T/C [26]: 104% | viability, T/C [27]: 102% | viability, T/C [28]: 120% | viability, T/C [29]: 123% | viability, T/C [30]: 125% | viability, T/C [31]: 171% | viability, T/C [32]: 188% | viability, T/C [33]: 174% | viability, T/C [34]: 175% | viability, T/C [35]: 168% | viability, T/C [36]: 140%

pIC50 (second compound 0.0316 µM): < 6.52 | pIC50 (second compound 0.1 µM): < 6.52 | pIC50 (second compound 0.316 µM): < 6.52 | pIC50 (second compound 1 µM): < 6.52 | pIC50 (second compound 3.16 µM): < 6.52 | pIC50 (second compound 10 µM): < 6.52
Structure (SMILES): NC(=O)C(=Cn1cnc(-c2cc(C(F)(F)F)cc(C(F)(F)F)c2)n1)c1cncnc1 + Cc1c(S(C)(=O)=O)c(-c2cc(F)cc(N3CCN(c4ccc(NS(=O)(=O)c5ccc(NC(CCN6CCC(C(=O)OCCCP(=O)(O)O)CC6)CSc6ccccc6)c(S(=O)(=O)C(F)(F)F)c5)cc4)CC3)c2)c(-c2ccc(Cl)cc2)n1C(C)C
viability, T/C (second compound 0.0316 µM, first compound 0.000949 µM): 103% | viability, T/C (second compound 0.0316 µM, first compound 0.003 µM): 90.5% | viability, T/C (second compound 0.0316 µM, first compound 0.00949 µM): 93.7% | viability, T/C (second compound 0.0316 µM, first compound 0.03 µM): 91% | viability, T/C (second compound 0.0316 µM, first compound 0.0949 µM): 118% | viability, T/C (second compound 0.0316 µM, first compound 0.3 µM): 90.8% | viability, T/C (second compound 0.1 µM, first compound 0.000949 µM): 96.3% | viability, T/C (second compound 0.1 µM, first compound 0.003 µM): 102% | viability, T/C (second compound 0.1 µM, first compound 0.00949 µM): 97.4% | viability, T/C (second compound 0.1 µM, first compound 0.03 µM): 102% | viability, T/C (second compound 0.1 µM, first compound 0.0949 µM): 121% | viability, T/C (second compound 0.1 µM, first compound 0.3 µM): 84.3% | viability, T/C (second compound 0.316 µM, first compound 0.000949 µM): 105% | viability, T/C (second compound 0.316 µM, first compound 0.003 µM): 93.6% | viability, T/C (second compound 0.316 µM, first compound 0.00949 µM): 101% | viability, T/C (second compound 0.316 µM, first compound 0.03 µM): 98.5% | viability, T/C (second compound 0.316 µM, first compound 0.0949 µM): 122% | viability, T/C (second compound 0.316 µM, first compound 0.3 µM): 99.9% | viability, T/C (second compound 1 µM, first compound 0.000949 µM): 105% | viability, T/C (second compound 1 µM, first compound 0.003 µM): 101% | viability, T/C (second compound 1 µM, first compound 0.00949 µM): 97.7% | viability, T/C (second compound 1 µM, first compound 0.03 µM): 94% | viability, T/C (second compound 1 µM, first compound 0.0949 µM): 130% | viability, T/C (second compound 1 µM, first compound 0.3 µM): 84.5% | viability, T/C (second compound 3.16 µM, first compound 0.000949 µM): 108% | viability, T/C (second compound 3.16 µM, first compound 0.003 µM): 94.5% | viability, T/C (second compound 3.16 µM, first compound 0.00949 µM): 98.1% | viability, T/C (second compound 3.16 µM, first compound 0.03 µM): 104% | viability, T/C (second compound 3.16 µM, first compound 0.0949 µM): 120% | viability, T/C (second compound 3.16 µM, first compound 0.3 µM): 79.3% | viability, T/C (second compound 10 µM, first compound 0.000949 µM): 152% | viability, T/C (second compound 10 µM, first compound 0.003 µM): 192% | viability, T/C (second compound 10 µM, first compound 0.00949 µM): 181% | viability, T/C (second compound 10 µM, first compound 0.03 µM): 205% | viability, T/C (second compound 10 µM, first compound 0.0949 µM): 196% | viability, T/C (second compound 10 µM, first compound 0.3 µM): 86.7%

pIC50 (second compound 0.0316 µM): < 6.00 | pIC50 (second compound 0.1 µM): < 6.00 | pIC50 (second compound 0.316 µM): < 6.00 | pIC50 (second compound 1 µM): < 6.00 | pIC50 (second compound 3.16 µM): < 6.00 | pIC50 (second compound 10 µM): < 6.00
Structure (SMILES): O=C(c1ccc(F)c(F)c1Nc1ccc(I)cc1F)N1CC(O)([C@@H]2CCCCN2)C1 + Cc1c(S(C)(=O)=O)c(-c2cc(F)cc(N3CCN(c4ccc(NS(=O)(=O)c5ccc(NC(CCN6CCC(C(=O)OCCCP(=O)(O)O)CC6)CSc6ccccc6)c(S(=O)(=O)C(F)(F)F)c5)cc4)CC3)c2)c(-c2ccc(Cl)cc2)n1C(C)C
viability, T/C [1]: 82.4% | viability, T/C [2]: 88% | viability, T/C [3]: 85.4% | viability, T/C [4]: 86.8% | viability, T/C [5]: 93% | viability, T/C [6]: 89% | viability, T/C [7]: 96.5% | viability, T/C [8]: 109% | viability, T/C [9]: 96% | viability, T/C [10]: 84.6% | viability, T/C [11]: 91.8% | viability, T/C [12]: 91.1% | viability, T/C [13]: 99.8% | viability, T/C [14]: 93.5% | viability, T/C [15]: 86.2% | viability, T/C [16]: 89.6% | viability, T/C [17]: 83.8% | viability, T/C [18]: 84% | viability, T/C [19]: 89.9% | viability, T/C [20]: 87.2% | viability, T/C [21]: 88% | viability, T/C [22]: 87.7% | viability, T/C [23]: 94.8% | viability, T/C [24]: 85% | viability, T/C [25]: 104% | viability, T/C [26]: 97.1% | viability, T/C [27]: 89.3% | viability, T/C [28]: 88.6% | viability, T/C [29]: 83.3% | viability, T/C [30]: 78.1% | viability, T/C [31]: 173% | viability, T/C [32]: 175% | viability, T/C [33]: 157% | viability, T/C [34]: 132% | viability, T/C [35]: 142% | viability, T/C [36]: 131%
